This is an account of results in patent EP0165696A2, “Improved transdermal dosage form” (priority 1984, dated 1985).

The structures appear in SMILES notation. ≈ marks a conversion by molar mass, not a printed value.

The solubility (thermodynamic) is the concentration in solution at equilibrium with solid.

Data set [1] in a line: In vitro penetration of drug across cadaver skin, modified Franz diffusion cell. The class given is in vitro ADME, human.
Description: The rate of penetration and lag time are determined by studying in vitro the penetration of the drug across cadaver skin, hairless mouse skin or other suitable membrane.
A measured portion of each of the formulations 1A-E was applied to the surface of the cadaver skin. The appearance of drug on the dermal side was monitored quantitatively over six days.
Using formulation 2B, four skin samples from the same person were used to determine the average flux. Using formulation 2C, skin samples from four different people were used to determine the average flux.
All formulations were gelled using 6.5 percent by weight of sodium stearate.
A measured portion of each formulation,8A & B, was applied to the surface of the cadaver skin. The appearance of drug on the dermal side was monitored quantitatively over six days.
Data set [2] is described as follows: Equilibrium solubility of active ingredients in solvents. The class given is physicochemical. As to conditions: organic solvent or mixture, 34 °C. On the procedure:
An exact amount of saturated solution is withdrawn into a volumetric flask while maintaining temperature. The saturated solution is diluted in suitable solvent and the content of active ingredient measured by high pressure liquid chromatography or other suitable analytical method.

Turning to `C[C@]12CC[C@@H]3c4ccc(O)cc4CC[C@H]3[C@@H]1CC[C@@H]2O` [17-beta-estradiol], the “increase in rate of penetration” value in data set [1] (mixed solvent system compared to the pure solvents alone, cadaver skin) fell in the range of 3 to 4 times.

Turning to `N=C(N)N/N=C/c1c(Cl)cccc1Cl` [Guanabenz], the solubility (thermodynamic) came out at 21.2 mg/mL (≈ 91.7 mM) in data set [2] (35/65 propylene glycol/glycerine, 35/65PG/Gly); 29.4 mg/mL (≈ 127 mM) in data set [2] (50/50 propylene glycol/glycerine, 50/50PG/Gly); 7.97 mg/mL (≈ 34.5 mM) in data set [2] (Glycerine); 47 mg/mL (≈ 203 mM) in data set [2] (Propylene Glycol).

As for `C#C[C@]1(O)CC[C@H]2[C@@H]3CCC4=CC(=O)CC[C@@H]4[C@H]3CC[C@@]21CC` [Levo-norgestrel], the “rate of penetration enhanced” value in data set [1] (levonorgestrel, by 10 weight percent of propylene glycol and glycerine combination) is listed as 2.7 times.
